Measurements taken from patent publication US20260035365A1, “1H-PYRROLO[3,2-B]PYRIDINE DERIVATIVES AS IRREVERSIBLE INHIBITORS OF MUTANT EGFR FOR THE TREATMENT OF CANCER” (Bayer Aktiengesellschaft, priority 2022, published 2026).
pIC50: −log10 of the molar value.

Experiments:
[1] = tested on: BA/F3 (EGFR D770_N771 insSVD T790M) cells; assay: Ba/F3 cell survival assay (Cell Titer-Glo), EGFR-insSVD T790M; type: cell-based; conditions: Ba/F3 EGFR-D770-N771ins_SVD; 48 h, without IL-3, with EGF
Procedure: 293T cells from ATCC were transfected with pBABEpuro expression constructs for WT EGFR or EGFR-insSVD, or EGFR-insSVD T790M, and pCL-Eco packaging vector using Fugene-6 transfection reagent from Promega. Plates were incubated at 37° C. for 48 h. Retrovirus was harvested by filtering the media supernatant through a 0.45 μm filter.
Ba/F3 cells purchased from DSMZ were grown in RPMI+10% FBS+10 ng/mL IL-3 and infected with filtered retroviral supernatant at a 1:2 dilution. Polybrene was added to a concentration of 8 μg/mL, plates were spun for 90 min, and incubated for 16 h at 37° C. 2 μg/mL puromycin was added to the infected cells 24 h after infection and cells were continually grown in the presence of puromycin and 10 ng/mL IL-3. Following stably expressing Ba/F3 cell lines were generated: Ba/F3-EGFR-WT, Ba/F3-EGFR-insSVD, Ba/F3-EGFR-insSVD T790M, (Ba/F3-vector-control).
For cell survival assays, Ba/F3 cells were grown to a density of 1-2 million cells per mL, spun down and resuspended in media without IL-3, and replated at a concentration of 200,000-500,000 cells per mL. The cells ectopically expressing WT EGFR, EGFR-insSVD, or EGFR-insSVD T790M were plated with 10 ng/mL Millipore Culture grade EGF. The cells ectopically expressing pBABEpuro empty vector were plated with 10 ng/mL IL-3.
2 days later, cells were plated in 50 μL in a 384 well plate at a concentration of 4000 cells per well for cells assayed in the absence of IL-3 and 2000 cells per well for cells assayed in the presence of IL-3. 100 nL of compound was added to each well using a 100 nL pin head, and plates were incubated at 37° C. for 48 h.
Cell viability was measured by adding 20 μL of Cell Titer-Glo Luminescent Cell Viability Reagent diluted 1:3 in PBS. Plates were sealed with Perkin Elmer Top-Seal, inverted several times to mix, and immediately centrifuged at 1000 rpm for 2 min. Plates were incubated in low light conditions for 8-10 min and luminescence was measured.

[2] = molecular target: mutEGFR (D770_N771insNPG, T790); assay: mutEGFR (D770_N771insNPG, T790) kinase assay; type: biochemical, human
Chain of mutEGFR (D770_N771insNPG, T790) (P00533 with tags, fused parts or gaps INS770NPG limits assumed): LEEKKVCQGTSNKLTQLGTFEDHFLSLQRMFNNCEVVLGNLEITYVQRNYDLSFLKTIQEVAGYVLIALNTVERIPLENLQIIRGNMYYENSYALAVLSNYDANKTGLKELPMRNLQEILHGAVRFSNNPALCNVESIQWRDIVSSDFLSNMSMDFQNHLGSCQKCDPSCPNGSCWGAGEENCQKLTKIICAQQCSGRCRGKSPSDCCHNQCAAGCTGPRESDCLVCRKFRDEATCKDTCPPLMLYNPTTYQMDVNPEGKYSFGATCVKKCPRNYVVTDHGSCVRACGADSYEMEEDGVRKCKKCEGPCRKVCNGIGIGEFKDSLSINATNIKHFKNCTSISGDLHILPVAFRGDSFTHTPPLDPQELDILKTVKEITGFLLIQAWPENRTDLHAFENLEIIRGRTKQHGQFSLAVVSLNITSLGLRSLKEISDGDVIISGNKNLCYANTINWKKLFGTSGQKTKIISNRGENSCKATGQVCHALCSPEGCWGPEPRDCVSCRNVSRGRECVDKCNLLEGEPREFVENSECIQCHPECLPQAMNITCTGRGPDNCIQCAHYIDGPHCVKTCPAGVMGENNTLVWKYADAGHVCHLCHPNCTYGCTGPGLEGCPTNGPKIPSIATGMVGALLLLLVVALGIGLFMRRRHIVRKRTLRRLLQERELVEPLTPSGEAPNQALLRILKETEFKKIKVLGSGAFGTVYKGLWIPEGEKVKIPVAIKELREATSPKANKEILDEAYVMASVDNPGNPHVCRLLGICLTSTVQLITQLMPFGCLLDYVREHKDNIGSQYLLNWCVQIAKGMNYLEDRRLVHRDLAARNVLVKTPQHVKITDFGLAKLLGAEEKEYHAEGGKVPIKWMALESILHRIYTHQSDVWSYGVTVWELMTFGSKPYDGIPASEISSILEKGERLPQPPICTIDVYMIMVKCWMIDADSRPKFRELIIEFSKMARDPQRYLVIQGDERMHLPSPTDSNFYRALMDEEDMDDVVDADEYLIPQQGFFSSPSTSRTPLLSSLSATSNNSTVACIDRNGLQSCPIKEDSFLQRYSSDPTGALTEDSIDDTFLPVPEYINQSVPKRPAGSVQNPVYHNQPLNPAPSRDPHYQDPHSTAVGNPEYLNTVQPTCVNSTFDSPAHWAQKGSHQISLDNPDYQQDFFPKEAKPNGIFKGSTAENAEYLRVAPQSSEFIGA

[3] = molecular target: mutEGFR (D770_N771insSVD) (Homo sapiens, UniProt P00533, INS767SVD); assay: Exon20-mutant-EGFR (D770_N771insSVD) TR-FRET kinase assay; type: biochemical; conditions: 2 mM ATP, 15 min preincubation
Chain of mutEGFR (D770_N771insSVD) (P00533 with tags, fused parts or gaps INS767SVD limits assumed): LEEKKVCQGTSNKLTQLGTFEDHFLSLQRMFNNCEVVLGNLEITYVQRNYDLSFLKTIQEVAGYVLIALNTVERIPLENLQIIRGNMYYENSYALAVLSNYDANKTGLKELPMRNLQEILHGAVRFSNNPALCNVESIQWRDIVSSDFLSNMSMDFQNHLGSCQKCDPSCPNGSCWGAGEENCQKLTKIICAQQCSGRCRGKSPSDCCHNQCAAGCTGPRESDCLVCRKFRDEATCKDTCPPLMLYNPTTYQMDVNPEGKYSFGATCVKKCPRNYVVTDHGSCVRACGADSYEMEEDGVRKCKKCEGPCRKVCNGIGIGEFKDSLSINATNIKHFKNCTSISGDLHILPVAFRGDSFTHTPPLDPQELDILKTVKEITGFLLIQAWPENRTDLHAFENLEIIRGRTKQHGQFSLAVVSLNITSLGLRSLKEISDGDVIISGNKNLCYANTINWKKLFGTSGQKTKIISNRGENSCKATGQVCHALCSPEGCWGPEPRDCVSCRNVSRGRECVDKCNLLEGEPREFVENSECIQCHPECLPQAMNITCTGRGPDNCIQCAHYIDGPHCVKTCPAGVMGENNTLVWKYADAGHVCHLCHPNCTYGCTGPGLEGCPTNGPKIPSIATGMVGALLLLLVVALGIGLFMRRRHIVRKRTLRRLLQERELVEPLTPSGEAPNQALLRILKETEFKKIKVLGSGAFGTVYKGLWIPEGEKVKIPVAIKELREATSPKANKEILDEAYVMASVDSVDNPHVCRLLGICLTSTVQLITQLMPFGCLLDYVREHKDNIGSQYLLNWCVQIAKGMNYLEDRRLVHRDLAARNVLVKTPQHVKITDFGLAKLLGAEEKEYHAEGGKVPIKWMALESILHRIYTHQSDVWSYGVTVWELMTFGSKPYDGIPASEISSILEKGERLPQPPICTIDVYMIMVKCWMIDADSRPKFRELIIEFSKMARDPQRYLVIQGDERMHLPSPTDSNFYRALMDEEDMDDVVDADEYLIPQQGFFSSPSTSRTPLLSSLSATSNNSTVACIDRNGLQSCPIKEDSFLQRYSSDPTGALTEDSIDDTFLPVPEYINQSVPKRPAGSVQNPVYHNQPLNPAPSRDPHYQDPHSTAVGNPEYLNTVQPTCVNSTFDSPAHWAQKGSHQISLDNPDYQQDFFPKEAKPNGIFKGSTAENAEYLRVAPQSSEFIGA
How it was run: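 GST-fused human EGFR fragment R669-A1210 carrying the SVD insertion, Sf9-expressed, typically 15 pg/μl, was preincubated with compound for 15 min at 22° C in pH 7.0 Hepes/MgCl2 buffer. Phosphorylation was read by HTRF (665/620 nm ratio), normalised to no-inhibitor and no-enzyme controls.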

BA/F3 (insSVD) cells = assay: Ba/F3 cell survival assay (Cell Titer-Glo), EGFR-insSVD; type: cell-based; conditions: Mus musculus, BaF3, 48 h, without IL-3, with EGF
How it was run: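 Viability read by CellTiter-Glo luminescence after 48 h compound exposure at 37° C, 4000 cells/well. Retrovirally transduced, puromycin-selected Ba/F3 lines carrying EGFR-insSVD ± T790M grew IL-3-free with 10 ng/mL EGF for 2 days beforehand; compound delivered by 100 nL pin.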

Row | Compound | pIC50 [1] | pIC50 [2] | pIC50 [3] | pIC50 (BA/F3 (insSVD) cells)
1 | C=CC(=O)N(C)CCOc1cnccc1-c1[nH]c2cccnc2c1-c1ccc(Cl)c(Cl)c1 [Example 23, N-[2-({4-[3-(3,4-dichlorophenyl)-1H-pyrrolo[3,2-b]pyridin-2-yl]pyridin-3-yl}oxy)ethyl]-N-methylprop-2-enamide] | 5.05 | 7.31 | 7.43 | 5.67
2 | C=CC(=O)N(C)CCOc1cnccc1-c1[nH]c2cccnc2c1-c1cccc(F)c1OC [Example 19, N-[2-({4-[3-(3-fluoro-2-methoxyphenyl)-1H-pyrrolo[3,2-b]pyridin-2-yl]pyridin-3-yl}oxy)ethyl]-N-methylprop-2-enamide] | 5.00 | 6.10 | 6.75 | 5.21
3 | CN(C)C/C=C/C(=O)N(C)CCOc1cnccc1-c1[nH]c2cccnc2c1-c1ccccc1 [Example 26, (2E)-4-(dimethylamino)-N-methyl-N-(2-{[4-(3-phenyl-1H-pyrrolo[3,2-b]pyridin-2-yl)pyridin-3-yl]oxy}ethyl)but-2-enamide] | 5.00 | 6.48 | 7.18 | 5.82
4 | C=CC(=O)N(CC)CCOc1cnccc1-c1[nH]c2cccnc2c1-c1ccccc1 [Example 32, N-ethyl-N-(2-{[4-(3-phenyl-1H-pyrrolo[3,2-b]pyridin-2-yl)pyridin-3-yl]oxy}ethyl)prop-2-enamide] | 5.02 | 7.52 | 7.82 | 6.44
5 | C=CC(=O)N(C)CCOc1cnccc1-c1[nH]c2cccnc2c1-c1ccc(Cl)c(CC)c1 [Example 20, N-[2-({4-[3-(4-chloro-3-ethylphenyl)-1H-pyrrolo[3,2-b]pyridin-2-yl]pyridin-3-yl}oxy)ethyl]-N-methylprop-2-enamide] | 5.05 | 6.11 | 6.44 | 5.33
6 | C=CC(=O)N(C)CCOc1cnccc1-c1[nH]c2cccnc2c1-c1ccc(F)c(Cl)c1 [Example 24, N-[2-({4-[3-(3-chloro-4-fluorophenyl)-1H-pyrrolo[3,2-b]pyridin-2-yl]pyridin-3-yl}oxy)ethyl]-N-methylprop-2-enamide] | 5.08 | 7.68 | 7.92 | 6.14
7 | C=CC(=O)N(C)CCOc1cnccc1-c1[nH]c2cccnc2c1-c1ccc2cccnc2c1 [Example 18, N-methyl-N-[2-({4-[3-(quinolin-7-yl)-1H-pyrrolo[3,2-b]pyridin-2-yl]pyridin-3-yl}oxy)ethyl]prop-2-enamide] | 5.00 | 5.78 | 6.26 | 5.10
8 | C=CS(=O)(=O)N1CCC[C@H]1COc1cnccc1-c1[nH]c2cccnc2c1-c1cccc(C(F)(F)F)c1 [Example 38, 2-(3-{[(2S)-1-(ethenesulfonyl)pyrrolidin-2-yl]methoxy}pyridin-4-yl)-3-[3-(trifluoromethyl)phenyl]-1H-pyrrolo[3,2-b]pyridine] | 6.83 | 8.98 | 9.39 | 7.70
9 | CN(C)C/C=C/C(=O)N1CCC[C@H]1COc1cnccc1-c1[nH]c2cccnc2c1-c1ccccc1 [Example 37, (2E)-4-(dimethylamino)-1-[(2S)-2-({[4-(3-phenyl-1H-pyrrolo[3,2-b]pyridin-2-yl)pyridin-3-yl]oxy}methyl)pyrrolidin-1-yl]but-2-en-1-one] | 5.04 | 7.95 | 8.43 | 6.64
10 | C=CC(=O)N(C)CCOc1cnccc1-c1[nH]c2cccnc2c1-c1cccc(Cl)c1OC [Example 21, N-[2-({4-[3-(3-chloro-2-methoxyphenyl)-1H-pyrrolo[3,2-b]pyridin-2-yl]pyridin-3-yl}oxy)ethyl]-N-methylprop-2-enamide] | 5.00 | 5.65 | 6.54 | 5.38
11 | C=CC(=O)NCCOc1cnccc1-c1[nH]c2cccnc2c1-c1ccc(F)cc1 [Example 1, N-[2-({4-[3-(4-fluorophenyl)-1H-pyrrolo[3,2-b]pyridin-2-yl]pyridin-3-yl}oxy)ethyl]prop-2-enamide] | 5.00 | 6.22 | 6.38 | 5.35
12 | C=CC(=O)N(C)CCOc1cnccc1-c1[nH]c2cccnc2c1-c1ccc(Cl)cc1 [Example 11, N-[2-({4-[3-(4-chlorophenyl)-1H-pyrrolo[3,2-b]pyridin-2-yl]pyridin-3-yl}oxy)ethyl]-N-methylprop-2-enamide] | 5.00 | 7.34 | 7.87 | 5.95
13 | C=CS(=O)(=O)N1C[C@@H](C)C[C@H]1COc1cnccc1-c1[nH]c2cccnc2c1-c1ccccc1 [Example 111, 2-(3-{[(2S,4S)-1-(ethenesulfonyl)-4-methylpyrrolidin-2-yl]methoxy}pyridin-4-yl)-3-phenyl-1H-pyrrolo[3,2-b]pyridine] | 7.11 | 9.48 | 9.87 | 7.96
14 | C=CC(=O)N(C)CCOc1cnccc1-c1[nH]c2cccnc2c1-c1ccccc1 [Example 4, N-methyl-N-(2-{[4-(3-phenyl-1H-pyrrolo[3,2-b]pyridin-2-yl)pyridin-3-yl]oxy}ethyl)prop-2-enamide] | 5.00 | 7.77 | 8.12 | 6.46
15 | C=CS(=O)(=O)N1CCC[C@H]1COc1cnccc1-c1[nH]c2cccnc2c1-c1ccccc1 [Example 36, 2-(3-{[(2S)-1-(ethenesulfonyl)pyrrolidin-2-yl]methoxy}pyridin-4-yl)-3-phenyl-1H-pyrrolo[3,2-b]pyridine] | 7.35 | 9.51 | 9.98 | 8.49
16 | C=CC(=O)N(C)CCOc1cnccc1-c1[nH]c2cccnc2c1-c1ccc(Cl)c(C)c1 [Example 10, N-[2-({4-[3-(4-chloro-3-methylphenyl)-1H-pyrrolo[3,2-b]pyridin-2-yl]pyridin-3-yl}oxy)ethyl]-N-methylprop-2-enamide] | 5.00 | 7.04 | 7.14 | 5.53
17 | C=CC(=O)N(C)CCOc1cnccc1-c1[nH]c2cccnc2c1-c1cc(Cl)cc(Cl)c1 [Example 31, N-[2-({4-[3-(3,5-dichlorophenyl)-1H-pyrrolo[3,2-b]pyridin-2-yl]pyridin-3-yl}oxy)ethyl]-N-methylprop-2-enamide] | 5.00 | 6.41 | 6.03 | 5.26
18 | C=CC(=O)N1CCC[C@@H]1COc1cnccc1-c1[nH]c2cccnc2c1-c1ccccc1 [Example 35, 1-[(2R)-2-({[4-(3-phenyl-1H-pyrrolo[3,2-b]pyridin-2-yl)pyridin-3-yl]oxy}methyl)pyrrolidin-1-yl]prop-2-en-1-one] | 5.00 | 6.46 | 7.27 | 5.85
19 | C=CC(=O)N(C)CCOc1cnccc1-c1[nH]c2ccc(OC)nc2c1-c1ccccc1 [Example 8, N-(2-{[4-(5-methoxy-3-phenyl-1H-pyrrolo[3,2-b]pyridin-2-yl)pyridin-3-yl]oxy}ethyl)-N-methylprop-2-enamide] | 5.05 | 6.28 | 6.70 | 5.28
20 | C=CS(=O)(=O)N(C)CCOc1cnccc1-c1[nH]c2cccnc2c1-c1ccc2cc[nH]c2c1 [Example 30, N-[2-({4-[3-(1H-indol-6-yl)-1H-pyrrolo[3,2-b]pyridin-2-yl]pyridin-3-yl}oxy)ethyl]-N-methylethenesulfonamide] | 6.08 | 8.74 | 9.29 | 7.21
